Test results from patent US8188085B2, “Antifungal agents” (Merck Sharp & Dohme Corp., priority 2008, dated 2012).

These compounds were tested against glucan synthase (GS) prepared from Candida albicans MY1055 (Candida albicans, UniProt O13428) (assay: Glucan synthase inhibition (polymerization assay, 96-well)). Details: GS from C. albicans MY1055; 60 min incubation at 22° C.
Type: biochemical
Protocol: The in vitro evaluation of glucan synthase inhibitory activity of compounds was measured in a polymerization assay in 96-well format. Each well contained 100 μL of ^3H-UDPG at 0.5 mM (6000 to 8000 dpm/nmol), 50 mM HEPES pH 7.5 (Sigma), 10% w/v glycerol (Sigma), 1.5 mg/mL bovine serum albumin (Sigma A 9647. Lot 44H0190), 25 mM KF (Fisher), 1 mM EDTA (Gibco ULTRAPURE), 25 μM GTP-γ-S, enzyme sufficient to give 3 to 6 nmoles incorporation during the 60 min incubation at 22° C., and test compound added from wells in 3-fold serial dilutions in 100% DMSO (1 μL/well). The reaction was stopped by the addition of 100 μL of 20% trichloroacetic acid. Plates were chilled for a minimum of 10 min, and precipitated glucan collected by filtration on GF/C plates (Packard UNIFILTER®-96), washed with 5 cycles of water (about 1 mL/well each cycle) using a Packard FILTERMATE HARVESTER. 40 μL/well scintillation fluid (Packard ULTIMA GOLD TM-XR) was added and the sealed plates counted in a WALLAC BETA counter in top-counting mode at an efficiency of approximately 40%.
Stock solutions were stored at 10 mg/mL in DMSO at −20° C. For each new enzyme preparation, the initial titration performed started at 1 mg/mL, which was prepared by making a 10-fold dilution in DMSO (5 μL to 50 μL). 40 μL of this stock was placed in column 12 of a round-bottomed 96-well microtiter plate. 40 μL DMSO was added to columns 1 to 11 in the same row and ten 3-fold serial dilutions performed, by transferring 20 μL from column 12 to column 11 etc., with 4 mixings before each transfer. No test compound was transferred to from column 2 to column 1. Duplicate aliquots of 1 μL of all 12 dilutions were then transferred to the side walls of a 96-well Bioblock 1.1 mL plate (Fisher brand) to create two rows.
Graphs of the primary data were created in PRISM software (the average of two determinations) using PRISM's curve fitting program (sigmoidal dose response non-linear regression). The amount of compound required to inhibit glucan synthase activity by 50% in this assay (IC50−ng/mL) was calculated.
Routine analysis was performed with glucan synthase (GS) prepared from Candida albicans MY1055 by the following procedure: MY1055 was grown in 10 liters YPD medium (10 g yeast extract, 20 g tryptone, 20 g glucose per liter) with vigorous shaking at 30° C., to early stationary phase. Cells were harvested by centrifugation, the pellet was washed and frozen at −70° C. until breakage. Thawed pellets were shaken with an equal volume of breakage buffer (50 mM HEPES pH 7.4, 10% glycerol, 1 mM EDTA, 1 mM PMSF, 1 mM DTT) and 4 times their weight of 0.5 mm acid washed glass beads for 2 hours at 4° C. Extent of breakage was assessed visually at 40× magnification. After low speed centrifugation to remove cell debris, the supernatant was centrifuged at 100,000×g for 60 min. to separate membranes plus ribosomes from cytoplasmic components. Membranes were further washed two additional times with breakage buffer using the same centrifugation conditions and finally suspended in breakage buffer at 25 to 30 mg/mL protein (Biorad) for storage at −70° C. Extraction of GS activity from membranes was performed at a protein concentration of 5 mg/mL in extraction buffer (50 mM NaPO4 pH 7.5, 0.1 M KCl, 0.1M Na citrate, 20% glycerol, 5 μM GTP-γ-S, 1 mM DTT, 1 mM PMSF, 3 μg/mL pepstatin) plus 0.25% W1 by gentle mixing at 4° C. for 60 min, followed by centrifugation at 100,000×g for 60 min. After centrifugation, clear supernatant was removed from a pellet consisting of a hard layer usually with small amounts of gelatinous unextracted membranes above it.
Trapping was initiated immediately by 5-fold dilution in trapping buffer (50 mM HEPES pH 7.5, 10 mM KF, 1 mM EDTA, 2 mg/mL BSA) plus 2.5 mM UDPG and 10 μM GTP-γ-S. After incubation at 25° C. for 60 to 90 minutes, glucan was harvested by low speed centrifugation (3,000×g, 10 min). […]

glucan synthase (GS) prepared from Candida albicans MY1055, sequence (O13428 1-1897): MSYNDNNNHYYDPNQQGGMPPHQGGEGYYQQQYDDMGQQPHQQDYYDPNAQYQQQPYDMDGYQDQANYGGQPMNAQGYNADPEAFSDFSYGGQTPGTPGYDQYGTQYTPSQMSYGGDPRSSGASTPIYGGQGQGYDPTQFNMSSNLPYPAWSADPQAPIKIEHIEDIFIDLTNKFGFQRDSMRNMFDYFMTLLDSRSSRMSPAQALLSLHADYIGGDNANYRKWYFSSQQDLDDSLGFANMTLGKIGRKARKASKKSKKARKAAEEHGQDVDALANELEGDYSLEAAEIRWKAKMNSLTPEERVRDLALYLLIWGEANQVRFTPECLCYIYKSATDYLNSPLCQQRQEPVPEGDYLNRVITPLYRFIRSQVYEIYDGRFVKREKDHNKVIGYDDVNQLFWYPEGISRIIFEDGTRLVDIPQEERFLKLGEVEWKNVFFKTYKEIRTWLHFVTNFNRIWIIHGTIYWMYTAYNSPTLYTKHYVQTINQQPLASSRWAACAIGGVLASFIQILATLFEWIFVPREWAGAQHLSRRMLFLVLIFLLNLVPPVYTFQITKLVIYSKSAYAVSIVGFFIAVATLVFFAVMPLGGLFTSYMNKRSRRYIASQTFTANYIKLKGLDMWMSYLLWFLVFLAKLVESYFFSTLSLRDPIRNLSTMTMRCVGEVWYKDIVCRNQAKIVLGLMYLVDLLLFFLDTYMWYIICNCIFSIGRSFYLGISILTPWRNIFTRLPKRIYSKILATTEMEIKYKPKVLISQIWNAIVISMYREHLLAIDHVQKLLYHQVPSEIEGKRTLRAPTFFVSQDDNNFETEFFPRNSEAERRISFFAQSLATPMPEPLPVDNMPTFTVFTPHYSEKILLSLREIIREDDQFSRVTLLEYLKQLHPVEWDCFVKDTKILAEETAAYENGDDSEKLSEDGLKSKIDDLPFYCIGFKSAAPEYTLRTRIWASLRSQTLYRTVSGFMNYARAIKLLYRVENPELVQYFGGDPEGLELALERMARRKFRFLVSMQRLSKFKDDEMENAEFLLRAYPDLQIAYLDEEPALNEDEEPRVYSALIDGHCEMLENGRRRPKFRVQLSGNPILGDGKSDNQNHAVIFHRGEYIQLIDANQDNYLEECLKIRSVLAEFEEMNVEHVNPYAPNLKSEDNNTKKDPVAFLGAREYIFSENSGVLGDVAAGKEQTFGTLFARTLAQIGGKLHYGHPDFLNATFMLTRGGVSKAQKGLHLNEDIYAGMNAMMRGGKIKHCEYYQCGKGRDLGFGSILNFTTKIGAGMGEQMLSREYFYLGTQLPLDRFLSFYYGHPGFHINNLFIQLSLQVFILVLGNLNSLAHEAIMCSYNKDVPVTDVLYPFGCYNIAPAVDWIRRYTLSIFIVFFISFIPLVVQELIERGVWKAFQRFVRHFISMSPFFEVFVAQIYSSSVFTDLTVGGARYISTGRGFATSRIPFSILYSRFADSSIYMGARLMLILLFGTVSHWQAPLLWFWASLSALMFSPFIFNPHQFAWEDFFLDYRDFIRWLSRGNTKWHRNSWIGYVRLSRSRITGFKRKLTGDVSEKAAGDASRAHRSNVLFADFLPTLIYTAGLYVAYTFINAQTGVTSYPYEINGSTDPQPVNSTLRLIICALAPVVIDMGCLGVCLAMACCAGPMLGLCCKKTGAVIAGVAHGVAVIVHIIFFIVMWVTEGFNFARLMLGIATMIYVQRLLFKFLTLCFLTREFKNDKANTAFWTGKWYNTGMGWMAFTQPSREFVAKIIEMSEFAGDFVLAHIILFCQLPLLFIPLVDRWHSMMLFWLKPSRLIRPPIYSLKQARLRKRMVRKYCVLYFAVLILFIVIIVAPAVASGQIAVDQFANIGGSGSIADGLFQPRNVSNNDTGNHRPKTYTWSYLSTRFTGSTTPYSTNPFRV

| Structure (SMILES) | Candida Albicans GS IC50 [ng/mL] |
| --- | --- |
| CN[C@@](C)(CO[C@H]1[C@H](n2ncnc2I)C[C@@]23COC[C@]1(C)[C@@H]2CC[C@H]1C3=CC[C@@]2(C)[C@H](C(=O)O)[C@@](C)([C@H](C)C(C)C)CC[C@]12C)C(C)C (racemic) [Example 22, (1S,4aR,6aS,7R,8R,10aR,10bR,12aR,14R,1SR)-15-[[(2R)-2,3-dimethyl-2-(methylamino)butyl]oxy]-8-[(1R)-1,2-dimethylpropyl]-14-(5-iodo-1H-1,2,4-triazol-1-yl)-1,6,6a,7,8,9,10,10a,10b,11,12,12a-dodecahydro-1,6a,8,10a-tetramethyl-4H-1,4a-propano-2H-phenanthro[1,2-c]pyran-7-carboxylic acid] | 5 |

Same assay, conditions: GS from C. albicans MY1055; 60 min incubation at 22° C.; read-out: Candida Albicans GS IC50 (converted)

| Structure (SMILES) | IC50 [nM] |
| --- | --- |
| CC(C)[C@@H](C)[C@@]1(C)CC[C@]2(C)[C@H]3CC[C@@H]4[C@@]5(COC[C@@]4(C)[C@@H](OC[C@](C)(N)C(C)C)[C@H](n4cnc(Br)n4)C5)C3=CC[C@@]2(C)[C@@H]1C(=O)O [Example 6C, (1S,4aR,6aS,7R,8R,10aR,10bR,12aR,14R,15R)-15-[[(2R)-2-amino-2,3-dimethylbutyl]oxy]-14-(3-bromo-1H-1,2,4-triazol-1-yl)-8-[(1R)-1,2-dimethylpropyl]-1,6,6a,7,8,9,10,10a,10b,11,12,12a-dodecahydro-1,6a,8,10a-tetramethyl-4H-1,4a-propano-2H-phenanthro[1,2-c]pyran-7-carboxylic acid] | 47.4 |
| CC(C)[C@@H](C)[C@@]1(C)CC[C@]2(C)[C@H]3CC[C@@H]4[C@@]5(COC[C@@]4(C)[C@@H](OC[C@](C)(N)C(C)C)[C@H](n4ncnc4-c4ccnc(-c6cccnc6)c4)C5)C3=CC[C@@]2(C)[C@@H]1C(=O)O [Example 272, (1S,4aR,6aS,7R,8R,10aR,10bR,12aR,14R,15R)-15-[[(2R)-2-amino-2,3-dimethylbutyl]oxy]-14-(5-[2,3′-bipyridin]-4-yl-1H-1,2,4-triazol-1-yl)-8-[(1R)-1,2-dimethylpropyl]-1,6,6a,7,8,9,10,10a,10b,11,12,12a-dodecahydro-1,6a,8,10a-tetramethyl-4H-1,4a-propano-2H-phenanthro[1,2-c]pyran-7-carboxylic acid] | 10.1 |
| CC(C)[C@@H](C)[C@@]1(C)CC[C@]2(C)[C@H]3CC[C@@H]4[C@@]5(COC[C@@]4(C)[C@@H](OCC4COCCN4)[C@H](n4ncnc4-c4ccncc4)C5)C3=CC[C@@]2(C)[C@@H]1C(=O)O (single isomer, unassigned) [Example 303A] | 30.7 |
| COC(=O)c1ncn([C@@H]2C[C@@]34COC[C@](C)([C@@H]3CC[C@H]3C4=CC[C@@]4(C)[C@H](C(=O)O)[C@@](C)([C@H](C)C(C)C)CC[C@]34C)[C@H]2OC[C@](C)(N)C(C)C)n1 (single isomer, unassigned) [Example 8A] | 5.74 |
| CC(C)[C@@H](C)[C@@]1(C)CC[C@]2(C)[C@H]3CC[C@@H]4[C@@]5(COC[C@@]4(C)[C@@H](OC[C@](C)(N)C(C)(C)C)[C@H](n4ncnc4-c4ccc(O)nc4)C5)C3=CC[C@@]2(C)[C@@H]1C(=O)O [Example 218, (1S,4aR,6aS,7R,8R,10aR,10bR,12aR,14R,15R)-15-[[(2R)-2-amino-2,3,3-trimethylbutyl]oxy]-8-[(1R)-1,2-dimethylpropyl]-14-[5-(6-hydroxy-3-pyridinyl)-1H-1,2,4-triazol-1-yl]-1,6,6a,7,8,9,10,10a,10b,11,12,12a-dodecahydro-1,6a,8,10a-tetramethyl-4H-1,4a-propano-2H-phenanthro[1,2-c]pyran-7-carboxylic acid] | 1.07 |
| CC(C)[C@@H](C)[C@@]1(C)CC[C@]2(C)[C@H]3CC[C@@H]4[C@@]5(COC[C@@]4(C)[C@@H](OC[C@](C)(N)C(C)C)[C@H](n4nc(N)nc4-c4ccccc4)C5)C3=CC[C@@]2(C)[C@@H]1C(=O)O [Example 36, (1S,4aR,6aS,7R,8R,10aR,10bR,12aR,14R,15R)-15-[[(2R)-2-amino-2,3-dimethylbutyl]oxy]-14-(3-amino-5-phenyl-1H-1,2,4-triazol-1-yl)-8-[(1R)-1,2-dimethylpropyl]-1,6,6a,7,8,9,10,10a,10b,11,12,12a-dodecahydro-1,6a,8,10a-tetramethyl-4H-1,4a-propano-2H-phenanthro[1,2-c]pyran-7-carboxylic acid] | 13.7 |
| CNC(=O)c1ncnn1[C@@H]1C[C@@]23COC[C@](C)([C@@H]2CC[C@H]2C3=CC[C@@]3(C)[C@H](C(=O)O)[C@@](C)([C@H](C)C(C)C)CC[C@]23C)[C@H]1OCC1(NC)CCSCC1 [Example 116, (1S,4aR,6aS,7R,8R,10aR,10bR,12aR,14R,15R)-8-[(1R)-1,2-dimethylpropyl]-14-[5-[(methylamino)carbonyl]-1H-1,2,4-triazol-1-yl]-15-[[tetrahydro-4-(methylamino)-2H-thiopyran-4-yl]methoxy]-1,6,6a,7,8,9,10,10a,10b,11,12,12a-dodecahydro-1,6a,8,10a-tetramethyl-4H-1,4a-propano-2H-phenanthro[1,2-c]pyran-7-carboxylic acid] | 20.3 |
| CN[C@@](C)(CO[C@H]1[C@H](n2nccc2-c2ccncc2)C[C@@]23COC[C@]1(C)[C@@H]2CC[C@H]1C3=CC[C@@]2(C)[C@H](C(=O)O)[C@@](C)([C@H](C)C(C)C)CC[C@]12C)C(C)C [Example 312, (1S,4aR,6aS,7R,8R,10aR,10bR,12aR,14R,15R)-15-[[(2R)-2,3-dimethyl-2-(methylamino)butyl]oxy]-8-[(1R)-1,2-dimethylpropyl]-14-[5-(4-pyridinyl)-1H-pyrazol-1-yl]-1,6,6a,7,8,9,10,10a,10b,11,12,12a-dodecahydro-1,6a,8,10a-tetramethyl-4H-1,4a-propano-2H-phenanthro[1,2-c]pyran-7-carboxylic acid] | 17.8 |
| CCC(N)(CC)CO[C@H]1[C@H](n2ncnc2-c2ccncc2)C[C@@]23COC[C@]1(C)[C@@H]2CC[C@H]1C3=CC[C@@]2(C)[C@H](C(=O)O)[C@@](C)([C@H](C)C(C)C)CC[C@]12C [Example 241, (1S,4aR,6aS,7R,8R,10aR,10bR,12aR,14R,15R)-15-(2-amino-2-ethylbutoxy)-8-[(1R)-1,2-dimethylpropyl]-14-[5-(4-pyridinyl)-1H-1,2,4-triazol-1-yl]-1,6,6a,7,8,9,10,10a,10b,11,12,12a-dodecahydro-1,6a,8,10a-tetramethyl-4H-1,4a-propano-2H-phenanthro[1,2-c]pyran-7-carboxylic acid] | 1.4 |
| CN[C@@](C)(CO[C@H]1[C@H](n2ncnc2C2=NCCCN2)C[C@@]23COC[C@]1(C)[C@@H]2CC[C@H]1C3=CC[C@@]2(C)[C@H](C(=O)O)[C@@](C)([C@H](C)C(C)C)CC[C@]12C)C(C)(C)C [Example 136, (1S,4aR,6aS,7R,8R,10aR,10bR,12aR,14R,15R)-8-[(1R)-1,2-dimethylpropyl]-14-[5-(1,4,5,6-tetrahydro-2-pyrimidinyl)-1H-1,2,4-triazol-1-yl]-15-[[(2R)-2,3,3-trimethyl-2-(methylamino)butyl]oxy]-1,6,6a,7,8,9,10,10a,10b,11,12,12a-dodecahydro-1,6a,8,10a-tetramethyl-4H-1,4a-propano-2H-phenanthro[1,2-c]pyran-7-carboxylic acid] | 12 |
| CC(C)[C@@H](C)[C@@]1(C)CC[C@]2(C)[C@H]3CC[C@@H]4[C@@]5(COC[C@@]4(C)[C@@H](OC[C@](C)(N)C(C)C)[C@H](n4nc(N)nc4C4CC4)C5)C3=CC[C@@]2(C)[C@@H]1C(=O)O (single isomer, unassigned) [Example 32A] | 4.32 |
